Results on 37 compounds are retold here after US11279687B2, “Compounds and compositions for the inhibition of NAMPT” (Valo Health, Inc., priority 2010, dated 2022).

pIC50: −log10 of the molar value. Read-outs that look alike come from different tables or passages of the source.

One experiment relates to A2780 cells. Kind of experiment: In-vitro cell proliferation assay (SRB), A2780 cells.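 Also: viable cell number read as SRB absorbance, background from media-only wells subtracted, IC50 interpolated from percent inhibition at two bracketing compound concentrations.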 Format: cell-based. Particulars: read-out: A2780 IC50.
The next experiment deals with NAMPT (Homo sapiens (Human), UniProt P43490). Kind of experiment: NAMPT biochemical inhibition assay (NMN quantified by mass spectrometry). Particulars: NAMPT biochemical inhibition; read-out: Biochem IC50.
NAMPT, sequence (P43490 whole entry): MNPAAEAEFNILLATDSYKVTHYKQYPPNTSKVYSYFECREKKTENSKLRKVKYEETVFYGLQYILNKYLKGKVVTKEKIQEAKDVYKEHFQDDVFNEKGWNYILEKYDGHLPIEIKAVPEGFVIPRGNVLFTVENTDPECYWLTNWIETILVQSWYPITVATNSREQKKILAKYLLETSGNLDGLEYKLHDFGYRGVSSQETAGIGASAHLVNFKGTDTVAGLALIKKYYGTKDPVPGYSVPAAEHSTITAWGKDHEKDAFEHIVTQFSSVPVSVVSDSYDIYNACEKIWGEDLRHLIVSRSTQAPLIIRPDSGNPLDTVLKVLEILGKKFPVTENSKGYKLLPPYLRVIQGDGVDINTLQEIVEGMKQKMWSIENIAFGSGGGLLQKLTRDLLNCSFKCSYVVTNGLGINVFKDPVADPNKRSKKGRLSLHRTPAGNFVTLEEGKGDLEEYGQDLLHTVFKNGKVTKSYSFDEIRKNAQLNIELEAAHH
Where [1] appears, read: Homo sapiens, A2780, 72 h, A2780 cells, 72 hours, SRB.

Broadly, the pIC50 is the negative decadic logarithm of the IC50, by convention in mol/L. Consider `O=C(NCc1cccnc1)Nc1ccc(S(=O)(=O)c2cccc3[nH]ccc23)cc1` [1-[4-(1H-indole-4-sulfonyl)phenyl]-3-(pyridin-3-ylmethyl)urea], for which the pIC50 in the experiment on A2780 cells (setting [1]) is 7.87; at NAMPT it was 8.80.

For the compound `O=C(NCc1cccnc1)Nc1ccc(S(=O)(=O)c2cccc3cc[nH]c23)cc1` [1-[4-(1H-indole-7-sulfonyl)phenyl]-3-(pyridin-3-ylmethyl)urea], the pIC50 in the experiment on A2780 cells (setting [1]) was 8.47; on NAMPT, 9.30.

With `O=C(NCc1cccnc1)Nc1ccc(S(=O)(=O)c2ccc3c(c2)OCCO3)cc1` [1-[4-(2,3-dihydro-1,4-benzodioxine-6-sulfonyl)phenyl]-3-(pyridin-3-ylmethyl)urea], the values for the pIC50 in the experiment with A2780 cells (setting [1]) and at NAMPT were 6.00 to 7.00 and 8.96, respectively.

As for `O=C(NCc1cccnc1)Nc1ccc(S(=O)(=O)c2cccc3c2OCC3)cc1` [1-[4-(2,3-dihydro-1-benzofuran-7-sulfonyl)phenyl]-3-(pyridin-3-ylmethyl)urea], the pIC50 in the experiment on A2780 cells (setting [1]) was 7.98; at NAMPT, 8.96.

On to `CC1CCCC(C)N1S(=O)(=O)c1ccc(NC(=O)NCc2cccnc2)cc1` (centres unmarked) [1-[4-(2,6-dimethylpiperidine-1-sulfonyl)phenyl]-3-(pyridin-3-ylmethyl)urea], for which the figures for the pIC50 in the experiment on A2780 cells (setting [1]) and at NAMPT were 6.79 and 7.96, respectively.

In the case of `O=C(NCc1cccnc1)Nc1ccc(S(=O)(=O)c2cccc3c2OCO3)cc1` [1-[4-(2H-1,3-benzodioxole-4-sulfonyl)phenyl]-3-(pyridin-3-ylmethyl)urea], the results for the pIC50 in the experiment on A2780 cells (setting [1]) and at NAMPT were 6.00 to 7.00 and 8.37, respectively.

Turning to `O=C(NCc1cccnc1)Nc1ccc(S(=O)(=O)c2ccc3c(c2)OCO3)cc1` [1-[4-(2H-1,3-benzodioxole-5-sulfonyl)phenyl]-3-(pyridin-3-ylmethyl)urea], the pIC50 is 6.49 with A2780 cells (setting [1]) and 9.00 on NAMPT.

For the compound `O=C(NCc1cccnc1)Nc1ccc(S(=O)(=O)N2CCOc3ccccc32)cc1` [1-[4-(3,4-dihydro-2H-1,4-benzoxazine-4-sulfonyl)phenyl]-3-(pyridin-3-ylmethyl)urea], the pIC50 was 6.34 in the experiment with A2780 cells (setting [1]) and 8.00 on NAMPT.

Turning to `CC1CC(C)CN(S(=O)(=O)c2ccc(NC(=O)NCc3cccnc3)cc2)C1` (centres unmarked) [1-[4-(3,5-dimethylpiperidine-1-sulfonyl)phenyl]-3-(pyridin-3-ylmethyl)urea], the pIC50 was 7.85 with A2780 cells (setting [1]) and 8.22 on NAMPT.

Take `O=C(NCc1cccnc1)Nc1ccc(S(=O)(=O)N2CCC(F)(F)CC2)cc1` [1-[4-(4,4-difluoropiperidine-1-sulfonyl)phenyl]-3-(pyridin-3-ylmethyl)urea]: the negative logarithm of the IC50 (pIC50) in the experiment on A2780 cells (setting [1]) is 6.52; on NAMPT, 7.60.

With `O=C(NCc1cccnc1)Nc1ccc(S(=O)(=O)N2CCCN(Cc3ccccc3)CC2)cc1` [1-[4-(4-benzyl-1,4-diazepane-1-sulfonyl)phenyl]-3-(pyridin-3-ylmethyl)urea], the pIC50 in the experiment with A2780 cells (setting [1]) is 6.86; on NAMPT, 8.30.

`O=C(NCc1cccnc1)Nc1ccc(S(=O)(=O)N2CCN(C(=O)[C@H]3CCCO3)CC2)cc1` [1-[4-(4-{[(2R)-oxolan-2-yl]carbonyl[piperazine-1-sulfonyl)phenyl]-3-(pyridin-3-ylmethyl)urea]: the negative-log IC50 (pIC50) in the experiment with A2780 cells (A2780 cells, 72 hours, SRB) was 7.52; at NAMPT, 8.10.

Turning to `O=C(NCc1cc2ccncc2s1)Nc1ccc(S(=O)(=O)c2ccccc2)cc1` [1-[4-(benzenesulfonyl)phenyl]-3-{thieno[2,3-c]pyridin-2-ylmethyl}urea], the pIC50 with A2780 cells (setting [1]) is under 4.52; at NAMPT, 6.34.

For `O=C(NCc1cccnc1)Nc1ccc(S(=O)(=O)NC2CCCCCC2)cc1` [1-[4-(cycloheptylsulfamoyl)phenyl]-3-(pyridin-3-ylmethyl)urea], the pIC50 with A2780 cells (setting [1]) is 7.10; on NAMPT, 8.52.

As to `O=C(NCc1cccnc1)Nc1ccc(S(=O)(=O)NC2CCCCC2)cc1` [1-[4-(cyclohexylsulfamoyl)phenyl]-3-(pyridin-3-ylmethyl)urea], the pIC50 is 6.69 with A2780 cells (setting [1]) and 9.00 at NAMPT.

In the case of `O=C(NCc1cccnc1)Nc1ccc(S(=O)(=O)C2CCCC2)cc1` [1-[4-(cyclopentanesulfonyl)phenyl]-3-(pyridin-3-ylmethyl)urea], the figures for the pIC50 with A2780 cells (setting [1]) and at NAMPT were 5.73 and 7.37, respectively.

On to `O=C(NCc1cccnc1)Nc1ccc(S(=O)(=O)N2CCCC3CCCCC32)cc1` (centres unmarked) [1-[4-(decahydroquinoline-1-sulfonyl)phenyl]-3-(pyridin-3-ylmethyl)urea], for which the pIC50 with A2780 cells (setting [1]) is 7.85; at NAMPT it was 7.96.

Consider `O=C(NCc1cccnc1)Nc1ccc(S(=O)(=O)N(Cc2ccccc2)Cc2ccccc2)cc1` [1-[4-(dibenzylsulfamoyl)phenyl]-3-(pyridin-3-ylmethyl)urea], for which the negative-log IC50 (pIC50) is 9.52 in the experiment with A2780 cells (setting [1]) and 9.10 at NAMPT.

For the compound `O=C(NCc1cccnc1)Nc1ccc(S(=O)(=O)c2cncc3ccccc23)cc1` [1-[4-(isoquinoline-4-sulfonyl)phenyl]-3-(pyridin-3-ylmethyl)urea], the pIC50 is 8.08 in the experiment on A2780 cells (setting [1]) and 8.85 on NAMPT.

For the compound `O=C(NCc1cccnc1)Nc1ccc(S(=O)(=O)c2cccc3c2Oc2ccccc2S3)cc1` [1-[4-(phenoxathiine-4-sulfonyl)phenyl]-3-(pyridin-3-ylmethyl)urea], the pIC50 with A2780 cells (setting [1]) is 8.74; at NAMPT, 8.54.

Regarding `O=C(NCc1cccnc1)Nc1ccc(S(=O)(=O)N2CCNCC2)cc1` [1-[4-(piperazine-1-sulfonyl)phenyl]-3-(pyridin-3-ylmethyl)urea], the pIC50 in the experiment with A2780 cells (setting [1]) was under 5.70; at NAMPT it was 7.31.

Take `O=C(NCc1cccnc1)Nc1ccc(S(=O)(=O)c2cccc(C(=O)N3CCOCC3)c2)cc1` [1-[4-({3-[(morpholin-4-yl)carbonyl]benzene}sulfonyl)phenyl]-3-(pyridin-3-ylmethyl)urea]: the pIC50 with A2780 cells (setting [1]) was 6.00 to 7.00; at NAMPT, 8.30.

Consider `O=C(NCc1cccnc1)Nc1ccc(S(=O)(=O)c2ccccc2)nc1` [1-[6-(benzenesulfonyl)pyridin-3-yl]-3-(pyridin-3-ylmethyl)urea], for which the pIC50 was 5.63 in the experiment on A2780 cells (setting [1]) and 7.82 at NAMPT.

As for `O=C(NCc1ccc(F)c(F)c1)Nc1ccc(S(=O)(=O)N2CCCCC2)cc1` [1-[(3,4-difluorophenyl)methyl]-3-[4-(piperidine-1-sulfonyl)phenyl]urea], the figures for the pIC50 in the experiment on A2780 cells (setting [1]) and on NAMPT were 4.54 and 7.04, respectively.

For the compound `Nc1ccc(CNC(=O)Nc2ccc(S(=O)(=O)c3ccc(F)cc3)cc2)cn1` [1-[(6-aminopyridin-3-yl)methyl]-3-{4-[(4-fluorobenzene)sulfonyl]phenyl}urea], the pIC50 in the experiment on A2780 cells (setting [1]) was 7.37; on NAMPT, 8.70.

Turning to `O=C(NCc1cccnc1)Nc1ccc(S(=O)(=O)c2cccnc2N2CCOCC2)cc1` [1-{4-[2-(morpholin-4-yl)pyridine-3-sulfonyl]phenyl}-3-(pyridin-3-ylmethyl)urea], the values for the pIC50 in the experiment with A2780 cells (setting [1]) and at NAMPT were 6.00 to 7.00 and 7.80, respectively.

Consider `O=C(NCc1cccnc1)Nc1ccc(S(=O)(=O)N2CCC(N3C(=O)Cc4ccccc43)CC2)cc1` [1-{4-[4-(2-oxo-2,3-dihydro-1H-indol-1-yl)piperidine-1-sulfonyl]phenyl}-3-(pyridin-3-ylmethyl)urea], for which the pIC50 is 7.24 in the experiment on A2780 cells (Homo sapiens, A2780, 72 h) and 8.52 at NAMPT.

Take `O=C(NCc1cccnc1)Nc1ccc(S(=O)(=O)N2CCN(C(=O)Cc3ccccc3)CC2)cc1` [1-{4-[4-(2-phenylacetyl)piperazine-1-sulfonyl]phenyl}-3-(pyridin-3-ylmethyl)urea]: the pIC50 is 6.03 in the experiment with A2780 cells (setting [1]) and 8.52 on NAMPT.

For the compound `O=C(NCc1cccnc1)Nc1ccc(S(=O)(=O)N2CCC(N3CCCCCC3)CC2)cc1` [1-{4-[4-(azepan-1-yl)piperidine-1-sulfonyl]phenyl}-3-(pyridin-3-ylmethyl)urea], the pIC50 in the experiment with A2780 cells (setting [1]) was 8.22; at NAMPT, 8.30.

For the compound `O=C(NCc1cccnc1)Nc1ccc(S(=O)(=O)N2CCC(N3CCCCC3)CC2)cc1` [1-{4-[4-(piperidin-1-yl)piperidine-1-sulfonyl]phenyl}-3-(pyridin-3-ylmethyl)urea], the figures for the pIC50 in the experiment with A2780 cells (setting [1]) and on NAMPT were 7.89 and 8.15, respectively.

For `O=C(NCc1cccnc1)Nc1ccc(S(=O)(=O)c2ccc(N3CCOCC3)nc2)cc1` [1-{4-[6-(morpholin-4-yl)pyridine-3-sulfonyl]phenyl}-3-(pyridin-3-ylmethyl)urea], the negative logarithm of the IC50 (pIC50) with A2780 cells (setting [1]) was 7.52; at NAMPT, 8.44.

Turning to `O=C(NCc1cccnc1)Nc1ccc(S(=O)(=O)NC2(c3ccccc3)CCCC2)cc1` [1-{4-[(1-phenylcyclopentyl)sulfamoyl]phenyl}-3-(pyridin-3-ylmethyl)urea], the pIC50 in the experiment with A2780 cells (setting [1]) was 6.74; on NAMPT, 7.54.

Regarding `O=C(NCc1cccnc1)Nc1ccc(S(=O)(=O)N2CC[C@@]3(C2)OC(=O)c2ccccc23)cc1` [1-{4-[(1R)-3-oxo-3H-spiro[2-benzofuran-1,3′-pyrrolidine]-1′-ylsulfonyl]phenyl}-3-(pyridin-3-ylmethyl)urea], the pIC50 is 7.39 in the experiment on A2780 cells (setting [1]) and 8.30 at NAMPT.

Regarding `O=C(NCc1cccnc1)Nc1ccc(S(=O)(=O)c2ccccc2Oc2ccccc2)cc1` [1-{4-[(2-phenoxybenzene)sulfonyl]phenyl}-3-(pyridin-3-ylmethyl)urea], the pIC50 with A2780 cells (setting [1]) was 8.10; at NAMPT, 8.70.

Consider `O=C(NCc1cccnc1)Nc1ccc(S(=O)(=O)Nc2ccccc2-c2ccccc2)cc1` [1-{4-[(2-phenylphenyl)sulfamoyl]phenyl}-3-(pyridin-3-ylmethyl)urea], for which the pIC50 was 7.33 with A2780 cells (setting [1]) and 8.52 at NAMPT.

As to `O=C(NCc1cccnc1)Nc1ccc(S(=O)(=O)N2CCCC[C@@H]2CN2CCOCC2)cc1` [1-{4-[(2R)-2-(morpholin-4-ylmethyl)piperidine-1-sulfonyl]phenyl}-3-(pyridin-3-ylmethyl)urea], the pIC50 with A2780 cells (setting [1]) was 7.09; at NAMPT it was 7.29.

With `O=C(NCc1cccnc1)Nc1ccc(S(=O)(=O)N2CCCC[C@@H]2Cc2ccccc2)cc1` [1-{4-[(2R)-2-benzylpiperidine-1-sulfonyl]phenyl}-3-(pyridin-3-ylmethyl)urea], the pIC50 in the experiment on A2780 cells (setting [1]) is 7.62; at NAMPT it was 8.40.
